SMILES strings stand for the structures. Read-outs that look alike come from different tables or passages of the source.

The results in this text go back to paper doi:10.1101/2024.08.19.608619, “Discovery of potent SARS-CoV-2 nsp3 macrodomain inhibitors uncovers lack of translation to cellular antiviral response” (bioRxiv, 2024).

Holding throughout (experiment): biochemical
Parameters in all cases: In vitro kinase panel profiling, per cent remaining kinase activity at 10 uM

Assay [1] has as its target CDK1/cyclinB(h) (Homo sapiens, UniProt P06493). The conditions noted are these: atp_concentration=45, read-out: % of control remaining. From the text:
(§1) We derisk potential for off-target activity by profiling the compound in a CEREP panel, a standard secondary pharmacology assessment, as well as a kinase panel to derisk a potential hinge-binding motif in our leads, and a PARP panel to derisk activity against human […]. Reassuringly, the compounds are selective, with the only off-targets being moderate human CHRM2 and KOR receptors activity associated with ASAP-0011198.

Assay [2] concerns the target CDK7/cyclinH/MAT1(h) (Homo sapiens, UniProt P50613). The conditions noted are these: atp_concentration=90, read-out: % of control remaining.
Excerpt: as §1

The target of assay [3] is T1, IRAK4(h) (Homo sapiens, UniProt Q9NWZ3).
T1 sequence (Q9NWZ3 1-460): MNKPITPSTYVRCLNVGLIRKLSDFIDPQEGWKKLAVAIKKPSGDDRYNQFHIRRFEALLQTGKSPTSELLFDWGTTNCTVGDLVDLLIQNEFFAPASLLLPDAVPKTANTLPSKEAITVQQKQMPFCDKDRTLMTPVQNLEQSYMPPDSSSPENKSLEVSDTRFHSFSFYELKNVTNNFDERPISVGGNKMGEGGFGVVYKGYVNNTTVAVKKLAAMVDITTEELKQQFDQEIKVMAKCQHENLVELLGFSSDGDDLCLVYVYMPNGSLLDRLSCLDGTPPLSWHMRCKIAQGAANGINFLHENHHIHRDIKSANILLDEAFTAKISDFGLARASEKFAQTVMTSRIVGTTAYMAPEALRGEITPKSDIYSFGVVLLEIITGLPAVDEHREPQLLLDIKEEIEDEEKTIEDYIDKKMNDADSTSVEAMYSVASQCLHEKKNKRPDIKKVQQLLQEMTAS
The note with it: atp_concentration=200, read-out: % of control remaining.
Excerpt: as §1

For assay [4], the target named is T2, Aurora-A(h) (Homo sapiens, UniProt O14965).
T2 construct: gene AURKA
T2 sequence (O14965 1-403): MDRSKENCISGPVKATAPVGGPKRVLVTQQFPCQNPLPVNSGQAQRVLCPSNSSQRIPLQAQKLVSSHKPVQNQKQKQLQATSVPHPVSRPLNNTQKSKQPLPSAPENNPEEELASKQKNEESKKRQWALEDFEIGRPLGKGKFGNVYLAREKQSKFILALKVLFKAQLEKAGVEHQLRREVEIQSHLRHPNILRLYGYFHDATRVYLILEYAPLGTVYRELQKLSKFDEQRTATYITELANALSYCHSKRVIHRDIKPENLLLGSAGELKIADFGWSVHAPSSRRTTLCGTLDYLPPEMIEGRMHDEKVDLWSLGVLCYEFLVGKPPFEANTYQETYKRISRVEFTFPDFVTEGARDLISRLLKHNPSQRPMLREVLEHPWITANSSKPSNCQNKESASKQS
The conditions noted are these: atp_concentration=15, read-out: % of control remaining.
Excerpt: as §1

In assay [5] the target is T3, Rsk1(h) (Homo sapiens, UniProt Q15418).
T3 construct: gene RPS6KA1
The conditions noted are these: atp_concentration=45, read-out: % of control remaining.
Excerpt: as §1

The target in assay [6] is T4, GSK3β(h) (Homo sapiens, UniProt P49841).
T4 construct: gene GSK3B
The note with it: atp_concentration=15, read-out: % of control remaining.
Excerpt: as §1

In assay [7] the target is T5, PKG1α(h) (Homo sapiens, UniProt Q13976).
T5 construct: gene PRKG1; isoform alpha
T5 sequence (Q13976 1-671): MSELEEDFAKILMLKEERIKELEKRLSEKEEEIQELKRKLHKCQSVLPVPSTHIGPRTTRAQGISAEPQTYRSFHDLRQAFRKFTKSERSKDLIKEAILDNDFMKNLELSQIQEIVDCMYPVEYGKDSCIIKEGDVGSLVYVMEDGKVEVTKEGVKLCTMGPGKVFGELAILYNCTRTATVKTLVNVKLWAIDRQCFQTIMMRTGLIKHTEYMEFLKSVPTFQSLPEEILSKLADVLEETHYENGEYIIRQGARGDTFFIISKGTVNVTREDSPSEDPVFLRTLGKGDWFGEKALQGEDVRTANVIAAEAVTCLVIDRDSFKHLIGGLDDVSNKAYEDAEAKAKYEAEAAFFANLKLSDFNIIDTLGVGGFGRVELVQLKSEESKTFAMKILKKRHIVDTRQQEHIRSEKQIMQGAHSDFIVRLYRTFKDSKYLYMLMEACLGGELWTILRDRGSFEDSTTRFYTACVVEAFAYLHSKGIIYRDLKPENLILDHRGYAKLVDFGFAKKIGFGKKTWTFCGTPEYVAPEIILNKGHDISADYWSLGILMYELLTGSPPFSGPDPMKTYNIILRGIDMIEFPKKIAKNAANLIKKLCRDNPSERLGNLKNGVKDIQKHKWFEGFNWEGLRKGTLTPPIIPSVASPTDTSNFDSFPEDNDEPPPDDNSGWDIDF
The conditions noted are these: atp_concentration=90, read-out: % of control remaining.
Excerpt: as §1

Chain of CDK7/cyclinH/MAT1(h) (P50613 whole entry): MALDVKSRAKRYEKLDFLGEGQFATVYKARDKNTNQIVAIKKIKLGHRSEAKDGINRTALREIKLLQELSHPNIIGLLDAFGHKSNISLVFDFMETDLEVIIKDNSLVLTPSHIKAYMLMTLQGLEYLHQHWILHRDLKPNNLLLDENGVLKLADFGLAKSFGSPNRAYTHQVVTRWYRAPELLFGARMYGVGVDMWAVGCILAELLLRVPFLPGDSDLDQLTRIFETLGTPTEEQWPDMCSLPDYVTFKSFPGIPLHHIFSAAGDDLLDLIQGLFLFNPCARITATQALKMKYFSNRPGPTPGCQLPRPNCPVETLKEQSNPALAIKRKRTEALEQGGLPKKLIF
Chain of CDK7/cyclinH/MAT1(h) (P51946 whole entry partner): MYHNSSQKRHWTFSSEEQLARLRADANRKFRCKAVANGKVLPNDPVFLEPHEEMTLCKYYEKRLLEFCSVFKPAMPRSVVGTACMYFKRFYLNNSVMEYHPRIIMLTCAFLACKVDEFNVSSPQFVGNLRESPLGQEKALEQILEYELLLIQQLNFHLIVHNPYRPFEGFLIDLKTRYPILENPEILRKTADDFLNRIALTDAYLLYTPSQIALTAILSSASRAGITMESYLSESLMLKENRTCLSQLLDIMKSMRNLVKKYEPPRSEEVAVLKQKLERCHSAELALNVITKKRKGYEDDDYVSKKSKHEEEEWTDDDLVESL
Chain of CDK7/cyclinH/MAT1(h) (P51948 whole entry partner): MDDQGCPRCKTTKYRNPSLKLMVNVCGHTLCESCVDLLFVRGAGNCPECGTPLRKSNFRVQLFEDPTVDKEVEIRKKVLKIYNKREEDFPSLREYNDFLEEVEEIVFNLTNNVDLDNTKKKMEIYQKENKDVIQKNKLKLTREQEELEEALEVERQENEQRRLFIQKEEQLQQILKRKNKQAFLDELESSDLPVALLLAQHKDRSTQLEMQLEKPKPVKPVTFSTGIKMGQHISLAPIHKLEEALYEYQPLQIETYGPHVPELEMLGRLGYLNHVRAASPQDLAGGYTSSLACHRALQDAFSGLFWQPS
Chain of CDK1/cyclinB(h) (P06493 whole entry): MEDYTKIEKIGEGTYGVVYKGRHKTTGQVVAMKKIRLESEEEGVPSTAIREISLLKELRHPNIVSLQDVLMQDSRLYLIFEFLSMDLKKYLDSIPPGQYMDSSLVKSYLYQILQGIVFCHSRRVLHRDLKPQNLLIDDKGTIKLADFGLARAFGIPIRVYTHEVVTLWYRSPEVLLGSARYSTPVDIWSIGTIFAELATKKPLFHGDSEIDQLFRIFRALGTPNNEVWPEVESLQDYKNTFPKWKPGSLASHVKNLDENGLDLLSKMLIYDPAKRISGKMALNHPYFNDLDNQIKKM
Chain of CDK1/cyclinB(h) (P14635 whole entry partner): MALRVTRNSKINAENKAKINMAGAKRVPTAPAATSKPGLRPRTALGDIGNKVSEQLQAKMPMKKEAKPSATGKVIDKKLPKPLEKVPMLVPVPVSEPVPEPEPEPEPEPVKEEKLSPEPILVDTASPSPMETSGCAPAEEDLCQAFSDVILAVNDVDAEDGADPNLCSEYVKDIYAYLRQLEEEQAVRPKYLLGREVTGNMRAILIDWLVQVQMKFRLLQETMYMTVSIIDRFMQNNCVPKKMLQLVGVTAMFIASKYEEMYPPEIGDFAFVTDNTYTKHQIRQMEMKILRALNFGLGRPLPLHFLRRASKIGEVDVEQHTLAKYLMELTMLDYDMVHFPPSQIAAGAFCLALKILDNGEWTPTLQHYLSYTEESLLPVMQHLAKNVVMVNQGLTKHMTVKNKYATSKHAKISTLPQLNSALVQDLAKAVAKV
T3 sequence (Q15418 whole entry): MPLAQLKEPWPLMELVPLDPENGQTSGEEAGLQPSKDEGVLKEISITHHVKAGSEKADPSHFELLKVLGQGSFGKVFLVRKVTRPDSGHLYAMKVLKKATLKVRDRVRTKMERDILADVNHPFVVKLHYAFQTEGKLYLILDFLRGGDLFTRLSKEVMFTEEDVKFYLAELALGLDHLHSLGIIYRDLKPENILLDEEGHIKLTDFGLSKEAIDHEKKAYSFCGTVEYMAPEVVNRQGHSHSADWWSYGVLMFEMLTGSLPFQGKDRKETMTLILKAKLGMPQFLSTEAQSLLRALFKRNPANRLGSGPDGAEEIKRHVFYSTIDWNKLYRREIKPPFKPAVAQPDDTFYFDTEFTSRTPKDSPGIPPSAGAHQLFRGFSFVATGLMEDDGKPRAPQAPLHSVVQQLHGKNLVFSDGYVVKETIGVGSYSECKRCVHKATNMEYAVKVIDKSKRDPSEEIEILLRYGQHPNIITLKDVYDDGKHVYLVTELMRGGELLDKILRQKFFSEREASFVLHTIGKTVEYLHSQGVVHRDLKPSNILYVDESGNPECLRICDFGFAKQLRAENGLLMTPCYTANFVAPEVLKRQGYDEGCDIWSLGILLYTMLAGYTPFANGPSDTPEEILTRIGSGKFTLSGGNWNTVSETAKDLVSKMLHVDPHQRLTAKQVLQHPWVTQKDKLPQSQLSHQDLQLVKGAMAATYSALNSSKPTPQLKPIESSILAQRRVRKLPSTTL
T4 sequence (P49841 whole entry): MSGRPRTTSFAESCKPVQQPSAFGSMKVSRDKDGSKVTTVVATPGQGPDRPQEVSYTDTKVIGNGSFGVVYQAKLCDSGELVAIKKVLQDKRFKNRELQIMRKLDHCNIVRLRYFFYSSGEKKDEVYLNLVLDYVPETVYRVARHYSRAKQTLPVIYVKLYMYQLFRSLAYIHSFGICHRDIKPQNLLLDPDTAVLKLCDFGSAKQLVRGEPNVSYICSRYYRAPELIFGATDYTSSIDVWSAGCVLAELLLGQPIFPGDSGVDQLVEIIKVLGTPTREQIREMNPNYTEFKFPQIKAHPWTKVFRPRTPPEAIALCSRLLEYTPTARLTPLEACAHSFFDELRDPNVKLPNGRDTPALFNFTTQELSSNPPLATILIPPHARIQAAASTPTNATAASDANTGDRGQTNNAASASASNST

With `CC(C)C(Nc1ncnc2[nH]ccc12)c1ccc2c(c1)S(=O)(=O)CCC2` (stereo not drawn) [ASAP-0008327], the remaining activity at 10 µM turned out to be 129% in assay [1] (batch_name=ASAP-0008327-001); 85% in assay [2] (batch_name=ASAP-0008327-001); 88% in assay [3] (batch_name=ASAP-0008327-001); 57% in assay [4] (batch_name=ASAP-0008327-001); 92% in assay [5] (batch_name=ASAP-0008327-001); 107% in assay [6] (batch_name=ASAP-0008327-001). In addition, the remaining activity at 10 µM in assay [7] (batch_name=ASAP-0008327-001) was found to be 88%.

`COc1ccc([C@@H](Cc2nnn[nH]2)NC(=O)c2ncnc3[nH]ccc23)cc1` [ASAP-0008340]: the remaining activity at 10 µM in assay [1] (batch_name=ASAP-0008340-001) is 108%; in assay [2] (batch_name=ASAP-0008340-001), 91%; in assay [3] (batch_name=ASAP-0008340-001) it was 91%; in assay [4] (batch_name=ASAP-0008340-001), 71%; in assay [5] (batch_name=ASAP-0008340-001), 98%; in assay [6] (batch_name=ASAP-0008340-001) it was 105%. Also, the remaining activity at 10 µM in assay [7] (batch_name=ASAP-0008340-001) stood at 95%.

For `CC(C)[C@@H](Nc1ncnc2[nH]c(-c3cnn(C)c3C#N)cc12)c1ccc2c(n1)OCCO2` [ASAP-0008418], the remaining activity at 10 µM in assay [1] (batch_name=ASAP-0008418-001) turned out to be 95%; in assay [2] (batch_name=ASAP-0008418-001) it was 101%; in assay [3] (batch_name=ASAP-0008418-001), 100%; in assay [4] (batch_name=ASAP-0008418-001), 44%; in assay [5] (batch_name=ASAP-0008418-001), 145%; in assay [6] (batch_name=ASAP-0008418-001), 85%. Besides, the remaining activity at 10 µM in assay [7] (batch_name=ASAP-0008418-001) turned out to be 100%.

For the compound `CC(C)[C@H](Nc1ncnc2[nH]ccc12)c1ccc2c(c1)S(=O)(=O)CCC2` [ASAP-0008674], the remaining activity at 10 µM in assay [1] (batch_name=ASAP-0008674-002) amounted to 93%; in assay [2] (batch_name=ASAP-0008674-002), 89%; in assay [3] (batch_name=ASAP-0008674-002), 112%; in assay [4] (batch_name=ASAP-0008674-002), 51%; in assay [5] (batch_name=ASAP-0008674-002) it was 102%; in assay [6] (batch_name=ASAP-0008674-002), 94%. Besides, in assay [7] (batch_name=ASAP-0008674-002), the remaining activity at 10 µM came out at 123%.

For the compound `CC(C)[C@H](Nc1ncnc2[nH]c(-c3cnn(C)c3C#N)cc12)c1ccc2c(n1)OCCO2` [ASAP-0010715], the remaining activity at 10 µM was 89% in assay [1] (batch_name=ASAP-0010715-002); 98% in assay [2] (batch_name=ASAP-0010715-002); 106% in assay [3] (batch_name=ASAP-0010715-002); 53% in assay [4] (batch_name=ASAP-0010715-002); 120% in assay [5] (batch_name=ASAP-0010715-002); 98% in assay [6] (batch_name=ASAP-0010715-002). Moreover, the remaining activity at 10 µM in assay [7] (batch_name=ASAP-0010715-002) was 130%.

Take `CC(C)[C@@H](Nc1ncnc2[nH]c(-c3cnn(C)c3C#N)cc12)c1ccc2c(n1)OCCO2` [ASAP-0010716]: the remaining activity at 10 µM came out at 88% in assay [1] (batch_name=ASAP-0010716-002); 102% in assay [2] (batch_name=ASAP-0010716-002); 99% in assay [3] (batch_name=ASAP-0010716-002); 58% in assay [4] (batch_name=ASAP-0010716-002); 102% in assay [5] (batch_name=ASAP-0010716-002); 101% in assay [6] (batch_name=ASAP-0010716-002). Besides, the remaining activity at 10 µM in assay [7] (batch_name=ASAP-0010716-002) amounted to 123%.

On to `CNCc1cc(-c2cc3c(N[C@@H](c4ccc5c(c4)S(=O)(=O)CCC5)C(C)C)ncnc3[nH]2)co1` [ASAP-0011176], for which the remaining activity at 10 µM came out at 97% in assay [1] (batch_name=ASAP-0011176-002); 100% in assay [2] (batch_name=ASAP-0011176-002); 100% in assay [3] (batch_name=ASAP-0011176-002); 73% in assay [4] (batch_name=ASAP-0011176-002); 90% in assay [5] (batch_name=ASAP-0011176-002); 92% in assay [6] (batch_name=ASAP-0011176-002). Also, in assay [7] (batch_name=ASAP-0011176-002), the remaining activity at 10 µM amounted to 115%.

As to `CC(C)C(Nc1ncnc2[nH]c(C(=O)NC3CCN(C)C3)cc12)c1ccc2c(c1)S(=O)(=O)CCC2` (stereo not drawn) [ASAP-0011198], the remaining activity at 10 µM in assay [1] (batch_name=ASAP-0011198-002) stood at 103%; in assay [2] (batch_name=ASAP-0011198-002), 101%; in assay [3] (batch_name=ASAP-0011198-002), 105%; in assay [4] (batch_name=ASAP-0011198-002), 97%; in assay [5] (batch_name=ASAP-0011198-002) it was 94%; in assay [6] (batch_name=ASAP-0011198-002) it was 93%. The remaining activity at 10 µM in assay [7] (batch_name=ASAP-0011198-002) came out at 116%.

`Cn1ncc(-c2cc3c(N[C@@H](c4ccc5c(n4)OCCO5)C(C)(C)C)ncnc3[nH]2)c1C#N` [ASAP-0011221]: the remaining activity at 10 µM in assay [1] (batch_name=ASAP-0011221-002) was 97%; in assay [2] (batch_name=ASAP-0011221-002) it was 108%; in assay [3] (batch_name=ASAP-0011221-002), 132%; in assay [4] (batch_name=ASAP-0011221-002) it was 95%; in assay [5] (batch_name=ASAP-0011221-002) it was 136%; in assay [6] (batch_name=ASAP-0011221-002) it was 98%. In addition, the remaining activity at 10 µM in assay [7] (batch_name=ASAP-0011221-002) was 127%.
